Assay results taken from patent US5147866A, “1,2-diamino-cyclobuten-3,4-dione derivatives” (Beecham Group p.l.c., priority 1989, dated 1992).

Key:
[1] = Antihypertensive activity: systolic blood pressure, tail cuff method, spontaneously hypertensive rats; type: in vivo; conditions: spontaneously hypertensive rats (systolic blood pressure >180 mmHg)
Description: Systolic blood pressures were recorded by a modification of the tail cuff method described by I. M. Claxton, M. G. Palfreyman, R. H. Poyser, R. L. Whiting, European Journal of Pharmacology, 37, 179 (1976). A W+W BP recorder, model 8005 was used to display pulses. Prior to all measurements rats were placed in a heated environment (33.5°±0.5° C.) before transfer to a restraining cage. Each determination of blood pressure was the mean of at least 5 readings. Spontaneously hypertensive rats (ages 12-18 weeks) with systolic blood pressures >180 mmHg were considered hypertensive.

[2] = tested on: guinea-pig isolated trachealis; assay: Bronchodilator activity: inhibition of spontaneous tone in guinea-pig isolated trachealis; conditions: Cavia porcellus; tracheal spirals, Krebs solution 37° C.; relaxation as percentage of total relaxation with 10^-3 M isoprenaline
Description: Male guinea pigs (300-600 g) were stunned by a blow to the head and bled from the carotid artery. The trachea was exposed, dissected free of connective tissue, and transferred to oxygenated Krebs solution at 37° C. Next, spirals (2 per trachea) were prepared by cutting the whole trachea spirally along its longitudinal axis and then dividing this spiral lengthwise. Each preparation was mounted, using silk thread, in a 10 ml organ bath filled with Krebs solution at 37° C. and bubbled with 5% CO2 with O2. The resting tension of the preparations was set at 2 g and changes in muscle tension were monitored isometrically by means of a UFI (2 oz) force and displacement transducer (Ormed Ltd) connected to a Linseis pen recorder. All preparations were allowed to equilibrate for 60 minutes. During this equilibration period the preparations were washed by upward displacement at 15 minute intervals and, if necessary, the resting tension was readjusted to 2 g using a mechanical micromanipulator system.
Once a steady resting tension had been obtained, the preparations were dosed […] with the test compound (10^-8 -2×10^-5 M), and finally a maximum relaxation achieved by addition of 10^-3 M isoprenaline. The fall in tension evoked by the test compound was expressed as a percentage of the total relaxation evoked in the presence of […]. Appropriate concentration-relaxation curves were then constructed and values for potency (IC50) were obtained.
[The composition of Krebs solution is: sodium chloride 118.07 mM, sodium hydrogen carbonate 26.19 mM, potassium chloride 4.68 mM, potassium orthophosphate 1.18 mM, magnesium sulphate septahydrate 1.8 mM and calcium chloride 2.52 mM;pH ca. 7.45.]

IC50 [2] [µM]	Structure (SMILES)	lowers blood pressure by ([1]; 3 mg/kg p.o.) [%]	lowers blood pressure by ([1]; 0.05 mg/Kg p.o.) [%]
4	CNc1c(N[C@@H]2c3cc(C#N)ccc3OC(C)(C)[C@H]2O)c(=O)c1=O (relative stereo) [Example 2]	17	
3.1	CN(c1c(N)c(=O)c1=O)[C@@H]1c2cc(C#N)ccc2OC(C)(C)[C@H]1O (relative stereo) [Example 3, trans-N'-[4-(6-Cyano-3,4-dihydro-2,2-dimethyl-2H-1-benzopyran-3-ol)]-2-amino-1-methylaminocyclobutene-3,4-dione]	58	
	CCc1ccc2c(c1)[C@@H](N(C)c1c(N)c(=O)c1=O)[C@H](O)C(C)(C)O2 [Example 12, trans-(3S,4R)-N^1-[4-(6-Ethyl-3,4-dihydro-2,2-dimethyl-2H-1-benzopyran-3-ol)]-2-amino-1-methylaminocyclobutene-3,4-dione]		24
3.7	CC1(C)Oc2ccc(C#N)cc2[C@@H](Nc2c(N)c(=O)c2=O)[C@@H]1O (relative stereo) [Example 1]	50	
